The target of data set [1] is T1, intracellular kinase domain of human IGF-1R (GST fusion protein) (Homo sapiens, UniProt P08069).
T1 construct: IGFRK and IRK enzyme used for the assay was intracellular kinase domain of human IGF-1R; GST; made in house
Nature of the data set: In vitro IGF-1R kinase assay (HTRF). Type of data set: biochemical. As to conditions: ATP 20 μM, IGFRK 0.25 nM. A general note: In TR-FRET formats the signal depends on donor and acceptor labels being close together.

Data set [2] concerns the target T2, CYP2D6 (Homo sapiens, UniProt P10635).
T2 construct: purchased Invitrogen (Vivid screening kits)
Nature of the data set: CYP inhibition fluorescence assay (rhCYP450, Vivid Invitrogen kit). Type of data set: in vitro ADME. As to conditions: for inhibition at 10 uM: human, read-out: % inhibition @ 10 uM 2D6. On the procedure: (§1) The % inhibition @ 10 uM data was generated from an rhCYP450/fluorescence assay according to the Vivid Invitrogen screening kits. The compounds were screened against 5 CYP450 (1A2, 2C9, 2C19, 2D6, and 3A4) isoforms. CYP3A4 constitutes 28% of the human hepatic CYP and is responsible for metabolism of 50% of all drugs. In this class of drugs, CYP3A4 is the most important CYP and thus it is highly desirable not to inhibit CYP3A4. The lower the percentage inhibition, the lower the CYP450 inhibitory liability of that specific compound.

Data set [3] concerns the target T3, CYP3A4 (Homo sapiens, UniProt P08684).
T3 construct: purchased Invitrogen (Vivid screening kits)
The description is as above. In kind it is in vitro ADME. As to conditions: for hepatic CYP3A4 inhibition as compared to compound 999: 10 uM; for inhibition at 10 uM: human, read-out: % inhibition @ 10 uM 3A4. Here is the method: as §1

Data set [4] in a line: Oral absorption in Swiss mice. Type of data set: in vivo. As to conditions: 10 mg/kg p.o.; for Cmax / half-life / AUC(0-inf): male, mouse, plasma, po; for AUC(0-inf): read-out: AUC0-infinity. Here is the method: Oral absorption of different compounds was ascertained in Swiss mice. The procedure followed was as detailed below:
Species: Swiss mice, overnight fasted state
Sex and weight: Male, in the weight range of 25-30 g
Number of animals: 18 animals divided into six groups (n=3) and bled as follows:
Formulation: Compound suspended in 0.5% carboxymethylcellulose or 0.25% methylcellulose
Blood (250 μL) is collected from the retro-orbital sinus at designated time points from each mouse using heparinized bleeding capillaries into micro-centrifuge tubes containing 5 μL EDTA (200 mM) as anticoagulant. Plasma is separated by centrifugation at 10000 rpm for 5 min and samples stored at −70° C. until bioanalysis.
On the day of analysis, plasma samples are thawed at room temperature. An aliquot (100 μL) of each plasma sample is spiked individually with 10 μL of internal standard. The samples are then vortexed for 10 seconds followed by addition of 1 mL of extraction solvent and vortexed for 5 minutes. The samples are then centrifuged at 10000 rpm for 5 minutes at 4° C. Supernatants (800 μL) are removed and transferred to glass tubes and evaporated to dryness under nitrogen. The dried residues are reconstituted using 100 μL of 90:10% v/v acetonitrile:MilliQ water. The reconstituted samples are vortexed, centrifuged and injected into LC-MS/MS for analysis. The calibration curve is prepared in the range of 0.5 to 5000 ng/mL in mouse plasma for quantitation.

In data set [5] the test system is A673 (Ewing's Sarcoma) cancer cell line. Nature of the data set: Anti-proliferative assay (MTS / CCK-8). In kind it is cell-based. As to conditions: for anti-proliferative activity as compared to compound 999: Ewing's Sarcoma cell line; for IC50: Homo sapiens, A673 (Ewing's Sarcoma), 72 hours, 100 ng/mL IGF, read-out: Anti-proliferation IC50. On the procedure:
Anti-proliferative potential of compounds was tested using various cell lines (details provided in Table 2) by MTS (Promega, Cat # G1111), a tetrazolium compound ((3-(4,5-dimethylthiazol-2-yl)-5-(3-carboxymethoxyphenyl)-2-(4-sulphophenyl)-2Htetrazolium, inner salt; MTS) and Cell Counting kit-8 (CCK-8 a Dojindo's highly watersoluble tetrazolium salt of WST-8 [2-(2-methoxy-4-nitrophenyl)-3-(4-nitrophenyl)-5-(2,4-disulfophenyl)-2H-tetrazolium, monosodium salt]). MTS is a colorimetric assay for determining the number of viable cells in proliferation, cytotoxicity or chemosensitivity assays. This is used with an electron coupling reagent PMS (Phenazine methosulfate). MTS is bioreduced by cells into a formazan that is soluble in tissue culture medium. The absorbance of the formazan at 490 nm can be measured directly from 96 well assay plates without additional processing. Dehydrogenase enzymes found in metabolically active cells accomplish the conversion of MTS into the aqueous soluble formazan. The quantity of formazan product is directly proportional to the number of living cells in culture. In CCK-8, WST-8 is reduced by dehydrogenases in cells to give a yellow colored product formazan, which is measured at 450 nm.
For experimental purposes, cells were seeded at a density of 3000-5000 cells per well in 180 μL/well volume in transparent 96 well tissue culture plate (NUNC, USA) and incubated overnight at 37° C., 5% CO2. Next day before adding compound the medium was replaced and 180 μL, of fresh medium added with the 100 ng/mL IGF without FCS followed by addition of 20 μL of 10× compound (10 mM stock made in DMSO and then further dilutions were made in medium, final DMSO concentration should not exceed 0.5%) and incubated for 72 hours in humidified 5% CO2 incubator at 37±1° C. After incubation medium was replaced with 200 μL of medium containing 20 μL MTS reagent per well. Plates were incubated for 3-4 hours and absorbance was measured at 490 nm on Spectrophotometer (SpectraMax, Molecular Devices). Percentage cytotoxicity and IC50 was calculated using SoftMax software. CCK-8 was used for suspension cell lines. Cell seeding and compound addition was done on same day. Following the incubation, 10 μL of CCK-8 solution was added in each well. After 4 hour incubation, the absorbance was determined at 450 nm using Spectrophotometer (SpectraMax, Molecular Devices). In every experiment, each condition was run in triplicate wells.

T1 sequence (P08069 999-1274 limits assumed): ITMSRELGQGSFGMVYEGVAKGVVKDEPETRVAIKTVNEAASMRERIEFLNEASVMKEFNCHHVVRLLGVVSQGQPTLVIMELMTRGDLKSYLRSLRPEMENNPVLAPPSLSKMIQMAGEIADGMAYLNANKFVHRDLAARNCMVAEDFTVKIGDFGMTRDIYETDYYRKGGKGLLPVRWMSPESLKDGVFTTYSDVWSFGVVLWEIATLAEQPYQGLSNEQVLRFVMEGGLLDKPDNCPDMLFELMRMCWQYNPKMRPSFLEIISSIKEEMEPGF
T2 sequence (P10635 whole entry): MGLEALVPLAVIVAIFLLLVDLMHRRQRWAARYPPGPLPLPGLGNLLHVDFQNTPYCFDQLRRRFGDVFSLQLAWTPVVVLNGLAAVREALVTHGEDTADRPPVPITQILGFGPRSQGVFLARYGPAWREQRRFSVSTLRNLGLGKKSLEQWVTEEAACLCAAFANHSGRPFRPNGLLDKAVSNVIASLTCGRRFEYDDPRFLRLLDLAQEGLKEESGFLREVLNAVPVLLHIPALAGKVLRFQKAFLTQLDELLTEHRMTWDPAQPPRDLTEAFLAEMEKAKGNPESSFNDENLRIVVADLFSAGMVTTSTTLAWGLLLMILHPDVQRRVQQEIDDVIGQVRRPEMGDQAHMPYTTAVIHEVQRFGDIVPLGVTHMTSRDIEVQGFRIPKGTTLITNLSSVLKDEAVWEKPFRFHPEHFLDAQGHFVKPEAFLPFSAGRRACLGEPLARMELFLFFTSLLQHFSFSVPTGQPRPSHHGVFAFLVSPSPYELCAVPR
T3 sequence (P08684 whole entry): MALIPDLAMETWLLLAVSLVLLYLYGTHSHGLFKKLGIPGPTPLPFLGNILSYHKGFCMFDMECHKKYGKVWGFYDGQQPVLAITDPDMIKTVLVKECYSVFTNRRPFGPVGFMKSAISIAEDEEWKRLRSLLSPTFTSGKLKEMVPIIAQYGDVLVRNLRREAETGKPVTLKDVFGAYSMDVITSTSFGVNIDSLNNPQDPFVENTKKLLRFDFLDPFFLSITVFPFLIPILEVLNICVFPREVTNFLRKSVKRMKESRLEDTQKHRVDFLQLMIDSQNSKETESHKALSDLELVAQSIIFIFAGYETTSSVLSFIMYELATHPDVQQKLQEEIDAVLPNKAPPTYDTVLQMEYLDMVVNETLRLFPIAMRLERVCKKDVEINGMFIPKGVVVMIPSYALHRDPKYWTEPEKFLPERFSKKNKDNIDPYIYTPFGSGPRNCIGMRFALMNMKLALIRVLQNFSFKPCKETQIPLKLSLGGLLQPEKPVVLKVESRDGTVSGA

Broadly, the inhibition is the drop in the measured response relative to a control, in per cent. As usually defined, the Cmax is the maximum level reached in the sampled fluid or tissue. For orientation: half-life means the time needed for the level to fall by half in the phase considered. Low readings indicate rapid decline, high ones slow decline. `Cc1ccc(OC[C@@H]2CN(S(=O)(=O)c3c(C(N)=O)[nH]c4ccc(Cl)cc34)CCO2)cc1-c1ccccc1` [Compound 20, (S)-5-chloro-3-((2-(((6-methyl-[1,1′-biphenyl]-3-yl)oxy)methyl)morpholino)sulfonyl)-1H-indole-2-carboxamide]: the IC50 in data set [1] turned out to be 140 nM. Besides, the inhibition at 10 uM in data set [2] was 25%. In data set [3], the “hepatic CYP3A4 inhibition as compared to compound 999” value is given as “reduced” and the inhibition at 10 uM was 2%. Also, in data set [4], the “AUC as compared to compound 999” value is “higher”, the “Cmax as compared to compound 999” value is “higher”, the highest level (Cmax) was 1980 nM and the half-life was 2.1 h. Further, the AUC(0-inf) in data set [4] is 4710 ng·h/mL.

Compound `CCOc1ccc(-c2cccc(OC[C@@H]3CN(S(=O)(=O)c4c(C(N)=O)[nH]c5ccc(Cl)cc45)CCO3)c2)cn1` [Compound 17, (S)-5-chloro-3-((2-((3-(6-ethoxypyridin-3-yl)phenoxy)methyl)morpholino)sulfonyl)-1H-indole-2-carboxamide] yielded an IC50 in data set [1] of 10 nM. The inhibition at 10 uM in data set [2] was 13%. For the same compound, in data set [3], the “hepatic CYP3A4 inhibition as compared to compound 999” value is “reduced” and the inhibition at 10 uM came out at 2%.

In data set [1], `Cc1cc(-c2ccc(OC[C@@H]3CN(S(=O)(=O)c4c(C(N)=O)[nH]c5ccc(Cl)cc45)CCO3)cc2)ccn1` [Compound 51, (S)-5-chloro-3-((2-((4-(2-methylpyridin-4-yl)phenoxy)methyl)morpholino)sulfonyl)-1H-indole-2-carboxamide] had an IC50 of 4.3 nM. Moreover, in data set [5], the “anti-proliferative activity as compared to compound 999” value is “higher” and the IC50 stood at 0.15 nM. Also, the inhibition at 10 uM in data set [2] amounted to 34%. In data set [3], the “hepatic CYP3A4 inhibition as compared to compound 999” value is recorded as “reduced” and the inhibition at 10 uM was 13%. For the same compound, in data set [4], the “AUC as compared to compound 999” value is “higher”, the “Cmax as compared to compound 999” value is “higher”, the Cmax came out at 2550 nM and the half-life was 1 h. Besides, the AUC(0-inf) in data set [4] is 3250 ng·h/mL.

In the case of `NC(=O)c1[nH]c2ccc(I)cc2c1S(=O)(=O)N1CCO[C@H](COc2ccccc2)C1` [Compound 999, reference compound], the IC50 in data set [5] amounted to 3.5 nM. In data set [2], the inhibition at 10 uM amounted to 13%. For the same compound, the inhibition at 10 uM in data set [3] came out at 36%. For the same compound, in data set [4], the peak level (Cmax) was 1200 nM, the half-life is 1.31 h and the AUC(0-inf) came to 1050 ng·h/mL.

On to `NC(=O)c1[nH]c2ccc(Cl)cc2c1S(=O)(=O)N1CCO[C@H](COc2ccc(-c3ncccn3)cc2)C1` [Compound 53, (S)-5-chloro-3-((2-((4-(pyrimidin-2-yl)phenoxy)methyl)morpholino)sulfonyl)-1H-indole-2-carboxamide], for which, in data set [1], the IC50 amounted to 6.4 nM. The “hepatic CYP2D6 inhibition as compared to compound 999” value in data set [2] (10 uM) is “reduced”. In addition, the inhibition at 10 uM in data set [2] turned out to be 0%; in data set [3] it was 37%.

As to `Cc1cc(OC[C@@H]2CN(S(=O)(=O)c3c(C(N)=O)[nH]c4ccc(Cl)cc34)CCO2)ccc1-c1ccnc(Cl)c1` [Compound 87, (S)-5-chloro-3-((2-((4-(2-chloropyridin-4-yl)-3-methylphenoxy)methyl)morpholino)sulfonyl)-1H-indole-2-carboxamide], the IC50 in data set [1] amounted to 9.3 nM. Besides, the inhibition at 10 uM in data set [2] stood at 16%; in data set [3], 24%. Also, in data set [3], the “hepatic CYP3A4 inhibition as compared to compound 999” value is “reduced”.

On to `NC(=O)c1[nH]c2ccc(Cl)cc2c1S(=O)(=O)N1CCO[C@H](COc2cccc(-c3ccccc3)c2)C1` [Compound 1, (S)-3-((2-(([1,1′-biphenyl]-3-yloxy)methyl)morpholino)sulfonyl)-5-chloro-1H-indole-2-carboxamide], for which the IC50 in data set [1] amounted to 33 nM. In addition, in data set [5], the “anti-proliferative activity as compared to compound 999” value is reported as “higher” and the IC50 was found to be 1.8 nM. In data set [4], the “AUC as compared to compound 999” value was “higher”, the “Cmax as compared to compound 999” value is given as “higher”, the peak level (Cmax) was 8560 nM and the half-life is 5.3 h. Moreover, the AUC(0-inf) in data set [4] came out at 10900 ng·h/mL.

The record behind these values is patent US20150119394A1, “Insulin-Like Growth Factor-1 Receptor Inhibitors” (Merck Sharp & Dohme Corp., priority 2012, published 2015).
